Test results published in patent US7943770B2, “Fused quinoline derivative and use thereof” (Takeda Pharmaceutical Company Limited, priority 2004, dated 2011).
pIC50: −log10 of the molar value.

Legend:
[1] = target: T1, hNK2 receptor (Homo sapiens, UniProt P21452); assay: Antagonistic activity determined by intracellular calcium concentration (FLIPR) using Neurokinin A and hNK2 receptor-expressing CHO cell; assay type: cell-based; details: increase in intracellular calcium due to Neurokinin A, hNK2 receptor-expressing CHO cells
T1 construct: host or cells: CHO cells
T1 sequence (P21452 1-398): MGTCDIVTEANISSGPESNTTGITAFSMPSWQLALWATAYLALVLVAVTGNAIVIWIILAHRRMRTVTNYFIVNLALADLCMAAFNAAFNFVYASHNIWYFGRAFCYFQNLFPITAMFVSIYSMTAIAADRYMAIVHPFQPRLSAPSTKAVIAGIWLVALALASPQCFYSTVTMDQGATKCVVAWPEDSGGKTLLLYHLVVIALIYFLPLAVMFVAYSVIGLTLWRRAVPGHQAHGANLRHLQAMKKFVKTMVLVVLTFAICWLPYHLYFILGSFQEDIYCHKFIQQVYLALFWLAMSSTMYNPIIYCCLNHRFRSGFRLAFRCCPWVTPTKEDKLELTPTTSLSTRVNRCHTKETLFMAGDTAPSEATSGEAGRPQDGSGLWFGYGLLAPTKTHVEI
Protocol: hNK2 receptor-expressing CHO cells were seeded on a 96 well plate at 3×10^4 cell/well and cultured for 24 hrs. Then the medium was aspirated and 20 mM HEPES (pH 7.4)—HBSS buffer (50 μL) was added. Thereto was added prepared 1× Reagent buffer (50 μL, FLIPR Calcium Assay Kit: Molecular Devices Corporation, Japan) and the mixture was reacted at 37° C. for 1 hr. A test compound diluted with 20 mM HEPES (pH 7.4)—HBSS buffer (50 μL, containing 0.4% dimethyl sulfoxide) was added to examine antagonistic activity of the test compound. Thereafter, 20 nM Neurokinin A solution (50 μL) was added, and change in the intracellular calcium concentration were measured by FLIPR (Molecular Devices Corporation, Japan).

[2] = target: T1, hNK2 receptor; assay: Radio-ligand ([125I]-NKA) receptor binding inhibitory activity using membrane fraction of hNK2 receptor-expressing CHO cell; details: membrane fraction of hNK2 receptor-expressing CHO cells, 25° C., 30 min
Summary of the method: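 Inhibition of [125I]-NKA binding ([…] solution added) measured after 30 min at 25 °C using hNK2-CHO membrane fraction (20 μg/mL suspension) in pH 7.4 Tris buffer containing MnCl2, BSA and protease inhibitors. Filter-bound counts read; activity calculated as fraction of specific binding, non-specific defined with unlabeled NKA.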

SMILES	Assay of Antagonistic activity Inhibitory rate (%) ([1]; test compound 1 μM)	Assay of Antagonistic activity Inhibitory rate (%) ([1]; test compound 10 μM)	pIC50 [2]
O=C(N[C@@H]1CCCC[C@@H]1C(=O)N1CC[C@@H]2[C@H](c3ccccc3)Nc3ccccc3[C@@H]21)c1ccccc1 [Compound of Example 1]	45%	97%	
COC[C@@H]1Nc2ccccc2[C@H]2[C@@H]1CCN2C(=O)[C@H]1CCCC[C@H]1NC(=O)c1ccc2c(c1)CCO2 [Example 248, N-((1R,2S)-2-{[(3aR,4R,9bR)-4-(Methoxymethyl)-2,3,3a,4,5,9b-hexahydro-1H-pyrrolo[3,2-c]quinolin-1-yl]carbonyl}cyclohexyl)-2,3-dihydro-1-benzofuran-5-carboxamide]			> 9.00
NC(=O)c1ccc(C(=O)N[C@@H]2CCCC[C@@H]2C(=O)N2CC[C@@H]3[C@H](c4ccsc4)Nc4ccccc4[C@@H]32)cc1 [Example 190, N-((1R,2S)-2-{[(3aR,4R,9bR)-4-(3-Thienyl)-2,3,3a,4,5,9b-hexahydro-1H-pyrrolo[3,2-c]quinolin-1-yl]carbonyl}cyclohexyl)terephthalamide]			> 9.00
COC[C@@H]1Nc2ccccc2[C@H]2[C@@H]1CCN2C(=O)[C@H]1CCCC[C@H]1NC(=O)c1nc2ccccc2[nH]1 [Example 237, N-((1R,2S)-2-{[(3aR,4R,9bR)-4-(Methoxymethyl)-2,3,3a,4,5,9b-hexahydro-1H-pyrrolo[3,2-c]quinolin-1-yl]carbonyl}cyclohexyl)-1H-benzimidazole-2-carboxamide]			> 9.00
